Source: patent US12144851B2, “Vaccinal strategy” (INSERM (INSTITUT NATIONAL DE LA SANTÉ ET DE LA RECHERCHE …, priority 2018, dated 2024)
Read-outs that look alike come from different tables or passages of the source. Where a SMILES comes first, the peptide text is derived from it. Where no end group is shown, it is not given here.

Columns and labels:
[1] = system: MELOE-1, HLA A*0201 restricted CD8 T cell clone; conditions: for cross-presentation compared with full length MELOE-1 / native antigen (in words): full length MELOE-1 as reference; for Fold change = EC50 (M) of MELOE-111-46/EC50 (M) SLP: SLP MELOE-113-27 xxxx MELOE-136-44, TNF-a response of CD8 T cell clone to SLP-loaded DC, range over independent experiments
[2] = system: MELOE-1, HLA DRb1*11 restricted CD4 T cell clone
[3] = read-out: EC50, cross-presentation of the HLA-A*0201-restricted MELOE-1 epitope, SLP series MELOE-1 11-23 xxxx MELOE-1 36-44, three independent experiments, FIG. 3

GSGS [GSGS (MELOE-111-23 xxxx MELOE-136-44)]
cross-presentation compared with full length MELOE-1 / native antigen (in words) [1]: poorer cross-presentation
EC50 [1, 3]: 430 nM

MSCVGYPDEATSREQFLPSEGAACPPWHPSERISSTLNDECWPASL (cysteines drawn unpaired) [full length MELOE-1, reference compound]
EC50 [2]: ~70 nM

ASLG [ASLG (MELOE-111-23 xxxx MELOE-136-44)]
cross-presentation compared with full length MELOE-1 / native antigen (in words) [1]: ten fold better presentation
EC50 [1, 3]: 12 nM

TSREQFLPSEGAACPPWVLSVGGTLNDECWPASL (Synthetic SLP) [SEQ ID NO: 69]
Fold change = EC50 (M) of MELOE-111-46/EC50 (M) SLP [1]: 1.5-2

LVGS [LVGS (MELOE-111-23 xxxx MELOE-136-44)]
cross-presentation compared with full length MELOE-1 / native antigen (in words) [1]: ten fold better presentation
EC50 [1, 3]: 34 nM

TSREQFLPSEGAACPPWALSVGGTLNDECWPASL (Synthetic SLP) [SEQ ID NO: 77]
Fold change = EC50 (M) of MELOE-111-46/EC50 (M) SLP [1]: 1-3

TSREQFLPSEGAACPPWSLSVGGTLNDECWPASL (Synthetic SLP) [SEQ ID NO: 75]
Fold change = EC50 (M) of MELOE-111-46/EC50 (M) SLP [1]: 1-8

TSREQFLPSEGAACPPWGLSVVVTLNDECWPASL (Synthetic SLP) [SEQ ID NO: 85]
Fold change = EC50 (M) of MELOE-111-46/EC50 (M) SLP [1]: 1

TSREQFLPSEGAACPPWVLSVGTLNDECWPASL (Synthetic SLP) [SEQ ID NO: 71]
Fold change = EC50 (M) of MELOE-111-46/EC50 (M) SLP [1]: 3-13
cross-presentation compared with full length MELOE-1 / native antigen (in words) [1]: ten fold

TSREQFLPSEGAACPPWGLSVGGTLNDECWPASL (Synthetic SLP) [SEQ ID NO: 81]
Fold change = EC50 (M) of MELOE-111-46/EC50 (M) SLP [1]: 1

LLSV [LLSV (MELOE-111-23 xxxx MELOE-136-44)]
cross-presentation compared with full length MELOE-1 / native antigen (in words) [1]: hundred fold better
EC50 [1, 3]: 2.8 nM

PIVLG [PIVLG (MELOE-111-23 xxxx MELOE-136-44)]
cross-presentation compared with full length MELOE-1 / native antigen (in words) [1]: hundred fold better
EC50 [1, 3]: 3.2 nM

TSREQFLPSEGAACPPWSLSVAATLNDECWPASL (Synthetic SLP) [SEQ ID NO: 73]
Fold change = EC50 (M) of MELOE-111-46/EC50 (M) SLP [1]: 7-8

VLSVG [VLSVG (MELOE-111-23 xxxx MELOE-136-44)]
cross-presentation compared with full length MELOE-1 / native antigen (in words) [1]: hundred fold better
EC50 [1, 3]: 2.1 nM

CC(C)C[C@H](NC(=O)[C@@H](NC(=O)CNC(=O)CNC(=O)CNC(=O)CNC(=O)[C@H](Cc1c[nH]c2ccccc12)NC(=O)[C@@H]1CCCN1C(=O)[C@@H]1CCCN1C(=O)[C@H](CS)NC(=O)[C@H](C)NC(=O)[C@H](C)NC(=O)CNC(=O)[C@H](CCC(=O)O)NC(=O)[C@H](CO)NC(=O)[C@@H]1CCCN1C(=O)[C@H](CC(C)C)NC(=O)[C@H](Cc1ccccc1)NC(=O)[C@H](CCC(N)=O)NC(=O)[C@H](CCC(=O)O)NC(=O)[C@H](CCCNC(=N)N)NC(=O)[C@H](CO)NC(=O)[C@@H](NC(=O)[C@H](C)NC(=O)[C@H](C)N)[C@@H](C)O)[C@@H](C)O)C(=O)N[C@@H](CC(N)=O)C(=O)N[C@@H](CC(=O)O)C(=O)N[C@@H](CCC(=O)O)C(=O)N[C@@H](CS)C(=O)N[C@@H](Cc1c[nH]c2ccccc12)C(=O)N1CCC[C@H]1C(=O)N[C@@H](C)C(=O)O [GGGG (MELOE-111-23 xxxx MELOE-136-44), reference compound] (H-AATSREQFLPSEGAACPPWGGGGTLNDECWPA-OH; N-terminus and C-terminus assumed)
EC50 [1]: 1200 nM
cross-presentation compared with full length MELOE-1 / native antigen (in words) [1]: poorer cross-presentation

TSREQFLPSEGAACPPWPLSVIITLNDECWPASL (Synthetic SLP) [SEQ ID NO: 79]
Fold change = EC50 (M) of MELOE-111-46/EC50 (M) SLP [1]: 2.3-10
